Experiments:
Parameters in all cases: species or system mixed lysate of K562, MV4-11, THP-1, NCI-H1155
[1] = biological target: Casein kinase I isoform gamma-2 ; CSNK1G2 ; P78368 (Homo sapiens, UniProt P78368); details: DIA-MS residual binding; binder
[2] = biological target: Mitogen-activated protein kinase kinase kinase 4 ; MAP3K4 ; Q9Y6R4 (Homo sapiens, UniProt Q9Y6R4); details: binder
[3] = biological target: LIM domain kinase 2 ; LIMK2 ; P53671 (Homo sapiens, UniProt P53671); details: DIA-MS residual binding; binder
LIM domain kinase 2 ; LIMK2 ; P53671, sequence (P53671 whole entry, the tested form may be a part, canonical isoform): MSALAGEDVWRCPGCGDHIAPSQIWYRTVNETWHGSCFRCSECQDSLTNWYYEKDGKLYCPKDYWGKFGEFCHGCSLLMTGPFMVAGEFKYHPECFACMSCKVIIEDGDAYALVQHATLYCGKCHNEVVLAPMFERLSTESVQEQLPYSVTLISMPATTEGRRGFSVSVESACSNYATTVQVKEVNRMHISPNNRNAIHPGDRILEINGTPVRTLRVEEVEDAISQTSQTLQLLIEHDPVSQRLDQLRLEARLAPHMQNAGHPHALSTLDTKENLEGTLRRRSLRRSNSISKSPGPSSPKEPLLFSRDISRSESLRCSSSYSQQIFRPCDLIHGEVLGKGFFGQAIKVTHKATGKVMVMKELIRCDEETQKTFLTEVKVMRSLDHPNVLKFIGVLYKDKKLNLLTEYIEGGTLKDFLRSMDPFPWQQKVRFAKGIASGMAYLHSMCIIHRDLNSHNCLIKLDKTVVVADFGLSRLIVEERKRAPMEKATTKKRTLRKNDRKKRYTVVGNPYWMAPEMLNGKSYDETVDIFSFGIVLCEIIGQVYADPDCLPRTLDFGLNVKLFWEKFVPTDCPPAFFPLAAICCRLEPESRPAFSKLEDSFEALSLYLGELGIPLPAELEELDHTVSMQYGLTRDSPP

[4] = biological target: Isoform 2 of Tyrosine-protein kinase Lyn ; LYN-2 ; P07948-2 (Homo sapiens, UniProt P07948); details: DIA-MS residual binding; binder
Isoform 2 of Tyrosine-protein kinase Lyn ; LYN-2 ; P07948-2, sequence (P07948 whole entry, canonical isoform): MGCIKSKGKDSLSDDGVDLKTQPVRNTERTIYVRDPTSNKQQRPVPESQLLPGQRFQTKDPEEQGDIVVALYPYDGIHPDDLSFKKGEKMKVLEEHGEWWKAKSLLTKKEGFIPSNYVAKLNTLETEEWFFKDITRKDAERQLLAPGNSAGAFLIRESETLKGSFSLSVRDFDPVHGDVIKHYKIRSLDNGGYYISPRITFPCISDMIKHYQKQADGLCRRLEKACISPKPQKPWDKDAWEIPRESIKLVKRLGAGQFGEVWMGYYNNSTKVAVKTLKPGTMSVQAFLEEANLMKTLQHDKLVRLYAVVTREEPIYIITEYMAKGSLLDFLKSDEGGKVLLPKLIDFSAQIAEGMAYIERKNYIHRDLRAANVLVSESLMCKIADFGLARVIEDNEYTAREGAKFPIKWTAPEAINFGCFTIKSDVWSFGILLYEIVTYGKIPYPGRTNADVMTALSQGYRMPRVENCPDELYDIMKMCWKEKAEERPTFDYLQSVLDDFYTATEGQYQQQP

[5] = biological target: T1, Ephrin type-B receptor 2 ; EPHB2 ; P29323 (Homo sapiens, UniProt P29323); details: DIA-MS residual binding; binder
T1 sequence (P29323 1-1055): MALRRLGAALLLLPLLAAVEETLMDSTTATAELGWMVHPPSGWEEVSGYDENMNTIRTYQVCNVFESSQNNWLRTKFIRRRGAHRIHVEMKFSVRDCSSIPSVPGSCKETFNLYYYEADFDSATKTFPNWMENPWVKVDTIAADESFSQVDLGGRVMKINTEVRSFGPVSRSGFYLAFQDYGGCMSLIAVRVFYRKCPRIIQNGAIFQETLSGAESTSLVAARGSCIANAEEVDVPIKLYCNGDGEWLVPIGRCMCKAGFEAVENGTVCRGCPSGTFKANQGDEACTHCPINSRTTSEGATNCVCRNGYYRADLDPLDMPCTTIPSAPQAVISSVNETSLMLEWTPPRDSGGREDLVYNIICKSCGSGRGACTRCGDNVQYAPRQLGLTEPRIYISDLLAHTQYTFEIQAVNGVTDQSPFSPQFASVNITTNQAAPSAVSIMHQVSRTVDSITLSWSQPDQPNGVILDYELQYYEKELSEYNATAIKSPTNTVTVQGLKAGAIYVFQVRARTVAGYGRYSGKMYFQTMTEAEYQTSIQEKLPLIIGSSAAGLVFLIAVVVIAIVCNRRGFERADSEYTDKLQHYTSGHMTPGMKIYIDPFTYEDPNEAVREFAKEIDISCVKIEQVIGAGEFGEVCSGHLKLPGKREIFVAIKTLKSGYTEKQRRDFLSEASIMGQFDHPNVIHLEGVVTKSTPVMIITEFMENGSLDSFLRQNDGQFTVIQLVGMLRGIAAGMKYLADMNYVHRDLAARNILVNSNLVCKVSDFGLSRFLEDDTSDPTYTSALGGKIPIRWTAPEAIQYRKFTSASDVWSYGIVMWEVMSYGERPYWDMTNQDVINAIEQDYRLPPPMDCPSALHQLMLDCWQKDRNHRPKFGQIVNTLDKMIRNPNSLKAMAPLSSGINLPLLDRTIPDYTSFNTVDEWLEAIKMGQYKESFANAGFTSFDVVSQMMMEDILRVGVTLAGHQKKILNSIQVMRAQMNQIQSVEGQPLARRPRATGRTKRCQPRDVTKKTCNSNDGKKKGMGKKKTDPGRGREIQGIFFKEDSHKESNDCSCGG

[6] = biological target: Isoform 4 of Serine/threonine-protein kinase SIK3 ; SIK3-8 ; Q9Y2K2-8 (Homo sapiens, UniProt Q9Y2K2); details: DIA-MS residual binding; binder
[7] = biological target: Tyrosine-protein kinase Lyn ; LYN ; P07948 (Homo sapiens, UniProt P07948); details: DIA-MS residual binding; binder
Tyrosine-protein kinase Lyn ; LYN ; P07948, sequence (P07948 whole entry, one chain of several): as the sequence (P07948 whole entry, canonical isoform) above

[8] = biological target: MAP kinase-interacting serine/threonine-protein kinase 1 ; MKNK1 ; Q9BUB5 (Homo sapiens, UniProt Q9BUB5); details: binder
MAP kinase-interacting serine/threonine-protein kinase 1 ; MKNK1 ; Q9BUB5, sequence (Q9BUB5 whole entry, one chain of several): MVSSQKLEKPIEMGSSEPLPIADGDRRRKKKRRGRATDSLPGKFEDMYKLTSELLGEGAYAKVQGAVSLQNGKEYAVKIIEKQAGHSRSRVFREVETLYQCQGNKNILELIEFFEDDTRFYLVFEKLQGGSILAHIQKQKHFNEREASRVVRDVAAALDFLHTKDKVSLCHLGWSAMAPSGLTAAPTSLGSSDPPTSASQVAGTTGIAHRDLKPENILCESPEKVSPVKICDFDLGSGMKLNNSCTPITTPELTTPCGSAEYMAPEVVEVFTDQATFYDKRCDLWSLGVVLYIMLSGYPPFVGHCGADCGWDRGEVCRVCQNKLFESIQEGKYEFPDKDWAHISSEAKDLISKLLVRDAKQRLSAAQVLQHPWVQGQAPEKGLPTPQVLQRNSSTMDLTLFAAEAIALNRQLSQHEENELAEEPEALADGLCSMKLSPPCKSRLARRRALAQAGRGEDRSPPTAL

[9] = biological target: Activated CDC42 kinase 1 ; TNK2 ; Q07912 (Homo sapiens, UniProt Q07912); details: DIA-MS residual binding; binder
Activated CDC42 kinase 1 ; TNK2 ; Q07912, sequence (Q07912 whole entry): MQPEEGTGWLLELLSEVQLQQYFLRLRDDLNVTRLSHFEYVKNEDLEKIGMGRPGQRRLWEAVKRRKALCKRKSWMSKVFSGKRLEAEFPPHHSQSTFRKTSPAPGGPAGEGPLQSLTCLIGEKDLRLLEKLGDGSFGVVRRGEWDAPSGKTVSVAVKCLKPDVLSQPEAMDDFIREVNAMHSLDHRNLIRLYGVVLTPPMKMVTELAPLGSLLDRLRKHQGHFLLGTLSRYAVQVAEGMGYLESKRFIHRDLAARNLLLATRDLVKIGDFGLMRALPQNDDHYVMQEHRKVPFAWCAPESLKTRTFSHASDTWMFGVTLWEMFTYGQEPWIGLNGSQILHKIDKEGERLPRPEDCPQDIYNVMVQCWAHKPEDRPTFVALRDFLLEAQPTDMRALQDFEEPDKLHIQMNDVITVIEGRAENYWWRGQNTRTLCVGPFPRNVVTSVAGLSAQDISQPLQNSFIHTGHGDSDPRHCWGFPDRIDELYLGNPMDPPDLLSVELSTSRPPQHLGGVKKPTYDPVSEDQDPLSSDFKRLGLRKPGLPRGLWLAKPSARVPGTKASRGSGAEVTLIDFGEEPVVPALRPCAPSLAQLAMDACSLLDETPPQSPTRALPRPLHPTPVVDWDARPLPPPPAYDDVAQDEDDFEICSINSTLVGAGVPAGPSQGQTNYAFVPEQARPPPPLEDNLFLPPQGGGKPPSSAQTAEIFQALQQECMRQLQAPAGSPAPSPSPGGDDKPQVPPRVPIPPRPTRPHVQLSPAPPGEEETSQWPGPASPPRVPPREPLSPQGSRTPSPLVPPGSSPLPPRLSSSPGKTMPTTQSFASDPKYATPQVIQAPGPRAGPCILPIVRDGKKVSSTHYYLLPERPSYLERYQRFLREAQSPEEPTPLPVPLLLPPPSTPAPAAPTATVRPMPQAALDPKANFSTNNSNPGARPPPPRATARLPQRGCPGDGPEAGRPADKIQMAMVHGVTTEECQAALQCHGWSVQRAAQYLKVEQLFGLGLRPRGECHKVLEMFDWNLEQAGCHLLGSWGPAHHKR

[10] = biological target: Receptor-interacting serine/threonine-protein kinase 2 ; RIPK2 ; O43353 (Homo sapiens, UniProt O43353); details: DIA-MS residual binding; binder
[11] = biological target: Tyrosine-protein kinase CSK ; CSK ; P41240 (Homo sapiens, UniProt P41240); details: binder
[12] = biological target: Serine/threonine-protein kinase 25 ; STK25 ; O00506 (Homo sapiens, UniProt O00506); details: binder
Serine/threonine-protein kinase 25 ; STK25 ; O00506, sequence (O00506 whole entry, one chain of several): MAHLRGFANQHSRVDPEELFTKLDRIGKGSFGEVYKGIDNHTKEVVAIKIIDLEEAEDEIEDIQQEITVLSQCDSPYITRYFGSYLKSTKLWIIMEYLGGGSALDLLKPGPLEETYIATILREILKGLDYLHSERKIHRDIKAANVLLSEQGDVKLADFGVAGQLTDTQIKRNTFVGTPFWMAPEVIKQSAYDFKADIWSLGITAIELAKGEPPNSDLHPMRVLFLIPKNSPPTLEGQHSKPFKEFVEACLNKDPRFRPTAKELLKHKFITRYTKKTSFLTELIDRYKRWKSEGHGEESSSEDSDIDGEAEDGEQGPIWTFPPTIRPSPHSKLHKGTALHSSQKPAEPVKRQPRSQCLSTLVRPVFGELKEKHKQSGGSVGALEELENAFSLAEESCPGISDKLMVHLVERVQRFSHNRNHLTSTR

[13] = biological target: Tyrosine-protein kinase Fyn ; FYN ; P06241 (Homo sapiens, UniProt P06241); details: DIA-MS residual binding; binder

Mitogen-activated protein kinase kinase kinase 4 ; MAP3K4 ; Q9Y6R4, sequence (Q9Y6R4 whole entry, the tested form may be a part): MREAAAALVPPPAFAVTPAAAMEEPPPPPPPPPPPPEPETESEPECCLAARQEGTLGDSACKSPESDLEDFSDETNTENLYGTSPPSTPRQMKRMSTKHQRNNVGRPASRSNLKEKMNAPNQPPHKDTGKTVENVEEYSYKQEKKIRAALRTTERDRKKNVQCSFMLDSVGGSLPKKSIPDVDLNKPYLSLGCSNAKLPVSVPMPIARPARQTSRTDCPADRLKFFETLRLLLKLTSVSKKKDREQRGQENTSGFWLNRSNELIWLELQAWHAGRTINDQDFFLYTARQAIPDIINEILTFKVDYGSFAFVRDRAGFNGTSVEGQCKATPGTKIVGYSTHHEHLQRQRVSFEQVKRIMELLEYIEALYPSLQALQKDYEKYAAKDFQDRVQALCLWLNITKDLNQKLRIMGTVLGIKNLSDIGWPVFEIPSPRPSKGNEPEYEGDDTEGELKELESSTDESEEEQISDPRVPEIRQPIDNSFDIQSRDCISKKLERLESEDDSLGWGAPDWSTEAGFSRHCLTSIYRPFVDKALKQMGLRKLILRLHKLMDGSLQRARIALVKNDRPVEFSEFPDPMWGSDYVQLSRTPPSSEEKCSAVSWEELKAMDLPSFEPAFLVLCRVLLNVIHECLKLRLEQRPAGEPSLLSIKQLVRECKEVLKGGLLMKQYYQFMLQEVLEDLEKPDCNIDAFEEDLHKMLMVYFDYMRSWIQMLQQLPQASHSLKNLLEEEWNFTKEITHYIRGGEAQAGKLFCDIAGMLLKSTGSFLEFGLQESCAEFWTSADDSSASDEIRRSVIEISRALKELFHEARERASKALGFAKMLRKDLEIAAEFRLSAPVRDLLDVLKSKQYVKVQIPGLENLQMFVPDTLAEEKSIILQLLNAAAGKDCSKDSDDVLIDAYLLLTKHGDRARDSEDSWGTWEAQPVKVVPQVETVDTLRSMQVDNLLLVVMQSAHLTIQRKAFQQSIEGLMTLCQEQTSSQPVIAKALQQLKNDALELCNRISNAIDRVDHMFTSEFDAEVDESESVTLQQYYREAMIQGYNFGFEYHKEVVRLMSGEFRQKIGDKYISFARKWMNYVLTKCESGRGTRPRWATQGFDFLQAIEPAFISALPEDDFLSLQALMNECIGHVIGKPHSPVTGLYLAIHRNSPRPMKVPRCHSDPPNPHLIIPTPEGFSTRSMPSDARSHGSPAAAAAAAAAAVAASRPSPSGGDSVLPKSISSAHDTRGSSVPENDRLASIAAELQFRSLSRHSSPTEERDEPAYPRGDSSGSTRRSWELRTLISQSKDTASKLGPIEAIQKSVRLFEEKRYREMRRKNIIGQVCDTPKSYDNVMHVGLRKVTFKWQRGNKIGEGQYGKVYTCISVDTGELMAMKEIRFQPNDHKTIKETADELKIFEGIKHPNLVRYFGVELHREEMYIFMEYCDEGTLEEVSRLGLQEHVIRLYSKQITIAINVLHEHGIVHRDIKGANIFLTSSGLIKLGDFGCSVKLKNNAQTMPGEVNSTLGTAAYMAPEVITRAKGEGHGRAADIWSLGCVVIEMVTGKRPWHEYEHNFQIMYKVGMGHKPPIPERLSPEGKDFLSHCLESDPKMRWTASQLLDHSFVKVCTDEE

DIA-MS / % Intensity (30 µM/DMSO) [1]: 45.01% | DIA-MS / % Intensity (30 µM/DMSO) [2]: 31.25% | DIA-MS / % Intensity (30 µM/DMSO) [3]: 12.29% | DIA-MS / % Intensity (30 µM/DMSO) [4]: 1.98% | DIA-MS / % Intensity (30 µM/DMSO) [5]: 3.776% | DIA-MS / % Intensity (30 µM/DMSO) [6]: 10.64% | DIA-MS / % Intensity (30 µM/DMSO) [7]: 11.5% | DIA-MS / % Intensity (30 µM/DMSO) [8]: 27.84% | DIA-MS / % Intensity (30 µM/DMSO) [9]: 2.81% | DIA-MS / % Intensity (30 µM/DMSO) [10]: 2.357% | DIA-MS / % Intensity (30 µM/DMSO) [11]: 0.9845% | DIA-MS / % Intensity (30 µM/DMSO) [12]: 52% | DIA-MS / % Intensity (30 µM/DMSO) [13]: 1.145%
Structure (SMILES): Cc1nc(Nc2ncc(C(=O)Nc3c(C)cccc3Cl)s2)cc(N2CCN(CCO)CC2)n1 [dasatinib]

Reference: article doi:10.1101/2024.08.13.607785v1 (biorxiv, 2024)
